Earlier results on one compound are cited in PubChem BioAssay AID1259409 (Chemical Carcinogenesis Research Information System (CCRIS), 2018).

Structures are written as SMILES.

The subject of the data set is rodent chemically induced tumor inhibition, incidence and multiplicity. As to the kind of experiment: CCRIS tumor inhibitor studies. The following applies: Dose [Inhibitor]: 0, Species: RAT, Promoter: NONE USED.

Consider `O=C(O)C[CH2][Ge](=[O])[O][Ge](=[O])[CH2]CC(=O)O`, for which the “tumour outcome (control, treated, inhibition, significance)” value reads like this: (Carcinogen: 1,2-DIMETHYLHYDRAZINE, 540-73-8, 100 MG/KG BW 1/D FOR FIRST 8 WK THEN 1/2 D FOR 19 WK (STUDY DURATION: 27 WK), Route [Inhibitor]: GAVAGE, Strain/Sex: WISTAR/MALE, Target Tissue: Type of Lesion: COLON: TUMOR, Dose [Carcinogen]: 20 MG/KG BW 1/WK FOR 15 WK) 36/36 (100%), 33/35 (94%), 6%, not significant; (Carcinogen: DIETHYLNITROSAMINE, 55-18-5, N-METHYL-N-NITROSOUREA, 684-93-5, N,N-DIBUTYLNITROSAMINE, 924-16-3, Carcinogen: DIETHYLNITROSAMINE, 55-18-5, N-METHYL-N-NITROSOUREA, 684-93-5, N,N-DIBUTYLNITROSAMINE, 924-16-3, 0.05% IN DIET BEGINNING POST CARCINOGEN TREATMENT AND CONTINUING TO WK 40 (STUDY DURATION: 40 WK), Route [Inhibitor]: ORAL, Strain/Sex: F344/MALE, Target Tissue: Type of Lesion: LUNG: ADENOMA, Dose [Carcinogen]: 100 MG/KG DIETHYLNITROSAMINE ONCE FOLLOWED BY 20 MG/KG N-METHYL-N-NITROSOUREA ON D 2, 5, 8 AND 11 THEN 0.05% N-N-DIBUTYL) 9/16 (56%), 1/19 (5%), 91%, p<0.001; (Carcinogen: DIETHYLNITROSAMINE, 55-18-5, N-METHYL-N-NITROSOUREA, 684-93-5, N,N-DIBUTYLNITROSAMINE, 924-16-3, Carcinogen: DIETHYLNITROSAMINE, 55-18-5, N-METHYL-N-NITROSOUREA, 684-93-5, N,N-DIBUTYLNITROSAMINE, 924-16-3, 0.05% IN DIET BEGINNING POST CARCINOGEN TREATMENT AND CONTINUING TO WK 40 (STUDY DURATION: 40 WK), Route [Inhibitor]: ORAL, Strain/Sex: F344/MALE, Target Tissue: Type of Lesion: LUNG: CARCINOMA, Dose [Carcinogen]: 100 MG/KG DIETHYLNITROSAMINE ONCE FOLLOWED BY 20 MG/KG N-METHYL-N-NITROSOUREA ON D 2, 5, 8 AND 11 THEN 0.05% N-N-DIBUTYL) 3/16 (19%), 0/19 (0%), 100%, not calculated; (Carcinogen: DIETHYLNITROSAMINE, 55-18-5, N-METHYL-N-NITROSOUREA, 684-93-5, N,N-DIBUTYLNITROSAMINE, 924-16-3, Carcinogen: DIETHYLNITROSAMINE, 55-18-5, N-METHYL-N-NITROSOUREA, 684-93-5, N,N-DIBUTYLNITROSAMINE, 924-16-3, 0.05% IN DIET BEGINNING POST CARCINOGEN TREATMENT AND CONTINUING TO WK 40 (STUDY DURATION: 40 WK), Route [Inhibitor]: ORAL, Strain/Sex: F344/MALE, Target Tissue: Type of Lesion: THYROID: ADENOMA, Dose [Carcinogen]: 100 MG/KG DIETHYLNITROSAMINE ONCE FOLLOWED BY 20 MG/KG N-METHYL-N-NITROSOUREA ON D 2, 5, 8 AND 11 THEN 0.05% N-N-DIBUTYL) 8/16 (50%), 2/19 (11%), 78%, p<0.02; (Carcinogen: DIETHYLNITROSAMINE, 55-18-5, N-METHYL-N-NITROSOUREA, 684-93-5, N,N-DIBUTYLNITROSAMINE, 924-16-3, Carcinogen: DIETHYLNITROSAMINE, 55-18-5, N-METHYL-N-NITROSOUREA, 684-93-5, N,N-DIBUTYLNITROSAMINE, 924-16-3, 0.05% IN DIET BEGINNING POST CARCINOGEN TREATMENT AND CONTINUING TO WK 40 (STUDY DURATION: 40 WK), Route [Inhibitor]: ORAL, Strain/Sex: F344/MALE, Target Tissue: Type of Lesion: THYROID: CARCINOMA, Dose [Carcinogen]: 100 MG/KG DIETHYLNITROSAMINE ONCE FOLLOWED BY 20 MG/KG N-METHYL-N-NITROSOUREA ON D 2, 5, 8 AND 11 THEN 0.05% N-N-DIBUTYL) 2/16 (13%), 1/19 (5%), 62%, not calculated; (Carcinogen: DIETHYLNITROSAMINE, 55-18-5, N-METHYL-N-NITROSOUREA, 684-93-5, N,N-DIBUTYLNITROSAMINE, 924-16-3, Carcinogen: DIETHYLNITROSAMINE, 55-18-5, N-METHYL-N-NITROSOUREA, 684-93-5, N,N-DIBUTYLNITROSAMINE, 924-16-3, 0.05% IN DIET BEGINNING POST CARCINOGEN TREATMENT AND CONTINUING TO WK 40 (STUDY DURATION: 40 WK), Route [Inhibitor]: ORAL, Strain/Sex: F344/MALE, Target Tissue: Type of Lesion: URINARY BLADDER: CARCINOMA, Dose [Carcinogen]: 100 MG/KG DIETHYLNITROSAMINE ONCE FOLLOWED BY 20 MG/KG N-METHYL-N-NITROSOUREA ON D 2, 5, 8 AND 11 THEN 0.05% N-N-DIBUTYL) 1/16 (6%), 0/19 (0%), 100%, not calculated. In addition, the “tumour outcome (control, treated, inhibition, significance)” value (Carcinogen: DIETHYLNITROSAMINE, 55-18-5, N-METHYL-N-NITROSOUREA, 684-93-5 N,N-DIBUTYLNITROSAMINE, 924-16-3, Carcinogen: DIETHYLNITROSAMINE, 55-18-5, N-METHYL-N-NITROSOUREA, 684-93-5 N,N-DIBUTYLNITROSAMINE, 924-16-3, 0.05% IN DIET BEGINNING POST CARCINOGEN TREATMENT AND CONTINUING TO WK 40 (STUDY DURATION: 40 WK), Route [Inhibitor]: ORAL, Strain/Sex: F344/MALE, Target Tissue: Type of Lesion: URINARY BLADDER: PAPILLOMA, Dose [Carcinogen]: 100 MG/KG DIETHYLNITROSAMINE ONCE FOLLOWED BY 20 MG/KG N-METHYL-N-NITROSOUREA ON D 2, 5, 8 AND 11 THEN 0.05% N-N-DIBUTYL) is 4/16 (25%), 1/19 (5%), 80%, not calculated.
